Assay results published in ChEMBL document CHEMBL3272295, “Drugs derived from cannabinoids. 5. delta6a,10a-Tetrahydrocannabinol and heterocyclic analogs containing aromatic side chains” (J Med Chem, 1976).
The source made the active and inactive calls. The rule behind the calls is not given here.

Columns and labels:
Mus musculus [1] = assay: Analgesic activity in po dosed mouse assessed as inhibition of acetic acid-induced writhing administered 30 mins prior to acetic acid challenge measured after 5 mins for 20 mins; assay type: functional
Rattus norvegicus [2] = assay: Analgesic activity in po dosed Sprague-Dawley rat after 15 to 90 mins by tail flick test; assay type: functional
Rattus norvegicus [3] = assay: Antihypertensive activity in spontaneously hypertensive rat model assessed as reduction in blood pressure at 3 mg/kg, po after 24 hrs; assay type: functional; design: scale not given: the % may be the effect or the level left
Rattus norvegicus [4] = assay: Antipsychotic activity in rat assessed as reduction of methamphetamine-induced hyperactivity at 10 mg/kg, po administered prior to methamphetamine challenge relative to vehicle-treated control; assay type: functional; design: scale not given: the % may be the effect or the level left
Rattus norvegicus [5] = assay: Antianxiety activity in Long-Evans rat assessed as reduction in motor activity at 5 mg/kg, po after 2 hrs relative to vehicle-treated control; assay type: functional; design: scale not given: the % may be the effect or the level left
[6] = Acute toxicity in po dosed mouse; assay type: organism-based; settings: in vivo
Rattus norvegicus [7] = assay: Antihypertensive activity in spontaneously hypertensive rat model assessed as reduction in blood pressure at 1 mg/kg, po after 24 hrs; assay type: functional; design: scale not given: the % may be the effect or the level left
Rattus norvegicus [8] = assay: Antihypertensive activity in spontaneously hypertensive rat model assessed as reduction in blood pressure at 1 mg/kg, po after 3 hrs; assay type: functional; design: scale not given: the % may be the effect or the level left
Rattus norvegicus [9] = assay: Antipsychotic activity in rat assessed as reduction of methamphetamine-induced hyperactivity at 5 mg/kg, po administered prior to methamphetamine challenge relative to vehicle-treated control; assay type: functional; design: scale not given: the % may be the effect or the level left
Rattus norvegicus [10] = assay: Antianxiety activity in Long-Evans rat assessed as reduction in motor activity at 1 mg/kg, po after 2 hrs relative to vehicle-treated control; assay type: functional; design: scale not given: the % may be the effect or the level left
Rattus norvegicus [11] = organism: Rattus norvegicus; assay: animal or person; assay type: functional; settings: Charles River, route oral
Description: Antidiarrheal activity in Charles River rat assessed as inhibition of castor oil-induced diarrhea by measuring protected animals at 0.5 mg/kg, po administered 1 hr prior to castor oil challenge measured after 1 hr relative to vehicle-treated control

Mus musculus [12] = assay: Antianxiety activity in albino BALB/cJ mouse assessed as reduction in footshock-induced fighting behavior at 5 mg/kg, po after 30 to 90 mins; assay type: functional; design: scale not given: the % may be the effect or the level left
Rattus norvegicus [13] = assay: Antihypertensive activity in spontaneously hypertensive rat model assessed as reduction in blood pressure at 3 mg/kg, po after 3 hrs; assay type: functional; design: scale not given: the % may be the effect or the level left
Rattus norvegicus [14] = assay: Antianxiety activity in Long-Evans rat assessed as reduction in motor activity at 10 mg/kg, po after 2 hrs relative to vehicle-treated control; assay type: functional; design: scale not given: the % may be the effect or the level left
Mus musculus [15] = assay: Antianxiety activity in albino BALB/cJ mouse assessed as reduction in footshock-induced fighting behavior at 10 mg/kg, po after 30 to 90 mins; assay type: functional; design: scale not given: the % may be the effect or the level left

Structure (SMILES)	inhibition (Mus musculus [1])	Activity (Rattus norvegicus [2])	further results
CC(CCCc1ccc(F)cc1)c1cc(O)c2c3c(c(=O)oc2c1)SCC3C (configuration not stated)	inactive	inactive	–
CC(CCCc1ccc(F)cc1)C(C)c1cc(O)c2c(c1)OC(C)(C)C1=C2CNCC1 (configuration not stated)	inactive	inactive	–
CC(CCc1ccc(F)cc1)c1cc(O)c2c(c1)OC(C)(C)C1=C2CNCC1 (configuration not stated)	inactive	inactive	–
CC1CCC2=C(C1)c1c(O)cc(C(C)CCCCc3ccc(F)cc3)cc1OC2(C)C (configuration not stated)	–	–	Activity (Rattus norvegicus [3]): 14%; Activity (Rattus norvegicus [4]): 71%; ED50 (Mus musculus [1]): 20.5 mg/kg; Activity (Rattus norvegicus [5]): 73%; LD50 [6]: 750 mg/kg; Activity (Rattus norvegicus [7]): 4%; Activity (Rattus norvegicus [8]): 7%; Activity (Rattus norvegicus [9]): 65%; Activity (Rattus norvegicus [10]): 40%; inhibition in vivo at 0.5 mg/kg (Rattus norvegicus [11]): 80%; Activity (Mus musculus [12]): 4%; Activity (Rattus norvegicus [13]): 33%
CC1CCc2c(c3c(O)cc(C(C)CCCc4ccc(F)cc4)cc3oc2=O)C1 (configuration not stated)	inactive	inactive	–
CC(CCCc1ccc(F)cc1)c1cc(O)c2c(c1)OC(C)(C)C1=C2CN(Cc2ccccc2)CC1 (configuration not stated)	inactive	inactive	–
CC(CCc1ccc(F)cc1)c1cc(O)c2c3c(c(=O)oc2c1)CCN(Cc1ccccc1)C3 (configuration not stated)	inactive	inactive	–
CC1CCc2c(c3c(O)cc(C(C)C(C)Cc4ccc(F)cc4)cc3oc2=O)C1 (configuration not stated)	inactive	inactive	–
CC1CCc2c(c3c(O)cc(C(C)C(C)CCCc4ccc(F)cc4)cc3oc2=O)C1 (configuration not stated)	inactive	inactive	–
CC(CCCc1ccc(F)cc1)c1cc(O)c2c3c(c(=O)oc2c1)CCC3 (configuration not stated)	inactive	inactive	–
CC(CCCCc1ccc(F)cc1)c1cc(O)c2c(c1)OC(C)(C)C1=C2CN(Cc2ccccc2)CC1 (configuration not stated)	inactive	inactive	–
CC1CCc2c(c3c(O)cc(C(C)C(C)CCc4ccc(F)cc4)cc3oc2=O)C1 (configuration not stated)	inactive	inactive	–
CC(CCCc1ccc(F)cc1)c1cc(O)c2c(c1)OC(C)(C)C1=C2CNCC1 (configuration not stated)	inactive	inactive	–
CC(CCCc1ccc(F)cc1)C(C)c1cc(O)c2c(c1)OC(C)(C)C1=C2CN(Cc2ccccc2)CC1 (configuration not stated)	inactive	inactive	–
CC1CCc2c(c3c(O)cc(C(C)CCCc4ccccc4)cc3oc2=O)C1 (configuration not stated)	inactive	inactive	–
CC(CCc1ccc(F)cc1)C(C)c1cc(O)c2c(c1)OC(C)(C)C1=C2CNCC1 (configuration not stated)	inactive	inactive	–
Cc1ccc(CCCC(C)c2cc(O)c3c(c2)OC(C)(C)C2=C3CNCC2)cc1 (configuration not stated)	inactive	inactive	–
Cc1ccc(CCCC(C)c2cc(O)c3c(c2)OC(C)(C)C2=C3CN(Cc3ccccc3)CC2)cc1 (configuration not stated)	inactive	inactive	–
CC(CCCc1ccc(F)cc1)c1cc(O)c2c3c(c(=O)oc2c1)CCN(Cc1ccccc1)C3 (configuration not stated)	inactive	inactive	–
CNC1=Nc2ccc(Cl)cc2C(c2ccccc2)=[N+]([O-])C1.Cl [CHLORDIAZEPOXIDE HYDROCHLORIDE]	–	–	Activity (Rattus norvegicus [14]): 54%; Activity (Rattus norvegicus [5]): 26%; Activity (Mus musculus [15]): 53%
CC(CCCc1ccc(F)cc1)c1cc(O)c2c3c(c(=O)oc2c1)N1CCC3CC1 (configuration not stated)	inactive	inactive	–
Cc1ccc(CCCC(C)c2cc(O)c3c4c(c(=O)oc3c2)CCN(Cc2ccccc2)C4)cc1 (configuration not stated)	inactive	inactive	–
Cc1ccc(CCCC(C)c2cc(O)c3c4c(c(=O)oc3c2)CCC(C)C4)cc1 (configuration not stated)	inactive	inactive	–
